Values quoted from earlier work as cited in US20090005367A1, “COMPOSITION AND METHOD FOR TREATING ALCOHOLISM AND OTHER SUBSTANCE ADDICTIONS” (priority 2006, published 2009).
Where two headings read alike, the source gives them in different places.

Experiments:
[1] = not given; remark: listed apart in the source
[2] = oral / gastrointestinal tract
[3] = not given; remark: listed apart in the source
aldehyde dehydrogenase = conditions: blood, after alcohol ingestion

Compound | Elimination Half-Life (parent drug) [h] | further results
Cc1nnc2n1-c1ccc(Cl)cc1C(c1ccccc1)=NC2 [Alprazolam] | 6 to 12 | –
CN1[C@@H]2CC[C@H]1C[C@@H](OC(=O)C(CO)c1ccccc1)C2 (stereo partly shown) [Atropine] | – | excreted in the urine as unchanged drug [1]: 30-50%
O=C1CN=C(c2ccccn2)c2cc(Br)ccc2N1 [Bromazepam] | 10 to 20 | –
CNC1=Nc2ccc(Cl)cc2C(c2ccccc2)=[N+]([O-])C1 [Chlordiazepoxide] | 5 to 30 | –
N#CCCN1C(=O)C(O)N=C(c2ccccc2F)c2cc(Cl)ccc21 (stereo not shown) [Cinolazepam] | 9 | –
CN1C(=O)CC(=O)N(c2ccccc2)c2cc(Cl)ccc21 [Clobazam] | 12 to 60 | –
O=C1CN=C(c2ccccc2Cl)c2cc([N+](=O)[O-])ccc2N1 [Clonazepam] | 18 to 50 | Elimination Half-Life: 30 to 40 h; absorption [2]: rapidly and completely absorbed; time until full effects occur after ingestion [3]: 1 to 4 h; duration of action ([3]; in vivo): 30 to 40 h
CCN(CC)C(=S)SSC(=S)N(CC)CC [Disulfiram, bis(diethylthiocarbamoyl)disulfide] | – | concentration of acetaldehyde compared with same amount of alcohol without disulfiram (aldehyde dehydrogenase): 5 to 10 times higher; time until full effects occur after ingestion [3]: 12 h; time effective following administration of the last dose ([3]; after last dose): approximately one to two
Clc1ccc2c(c1)C(c1ccccc1)=NCc1nncn1-2 [Estazolam] | 10 to 24 | –
CC1=CC(=O)N2CC(=O)N(C)c3ccc(Cl)cc3C2(c2ccccc2)O1 (stereo not shown) [Ketazolam] | 2 | –
CN1CCN(/C=C2\N=C3CN=C(c4ccccc4Cl)c4cc([N+](=O)[O-])ccc4N3C2=O)CC1 [Loprazolam] | 6 to 12 | –
O=C1Nc2ccc(Cl)cc2C(c2ccccc2Cl)=NC1O (stereo not shown) [Lorazepam] | 10 to 20 | –
CN1C(=O)C(O)N=C(c2ccccc2Cl)c2cc(Cl)ccc21 (stereo not shown) [Lormetazepam] | 10 to 12 | –
CN1CCN=C(c2ccccc2)c2cc(Cl)ccc21 [Medazepam] | 36 to 200 | –
Cc1ncc2n1-c1ccc(Cl)cc1C(c1ccccc1F)=NC2 [Midazolam] | – | Elimination Half-Life (h) (parent drug): 3 hours (1.8-6
O=C1CN=C(c2ccccc2)c2cc([N+](=O)[O-])ccc2N1 [Nitrazepam] | 15 to 38 | –
Fc1ccccc1C1=NCC(=S)N(CC(F)(F)F)c2ccc(Cl)cc21 [Quazepam] | 25 to 100 | –
CN1C(=O)CN=C(C2=CCCCC2)c2cc(Cl)ccc21 [Tetrazepam] | 3 to 26 | –
Cc1nnc2n1-c1ccc(Cl)cc1C(c1ccccc1Cl)=NC2 [Triazolam] | 2 | –
